Data from ChEMBL document CHEMBL1134865, “Antimalarial compounds from Parinari capensis” (Bioorg Med Chem Lett, 2002).
≈ marks a conversion by molar mass, not a printed value.

What was measured:
[1] = Compound was evaluated for its antimalarial activity in vitro on Plasmodium falciparum; format: functional
[2] = Compound was evaluated for toxicity on Human kidney epithelial (Graham cells) at a dose of 100 ug/mL; format: cell-based
[3] = Compound was evaluated for toxicity on Human kidney epithelial (Graham cells) at a dose of 100 ug/mL; Not toxic; format: cell-based

Structure (SMILES)	IC50 [1] [µg/mL]	IC50 [2] [µg/mL]	IC50 [3]
C=C1C(=O)[C@@]23CC[C@@H]4[C@@]5(C)CCC[C@@]4(OC5=O)[C@@]2(C)CC[C@]1(OC)C3	0.67 (≈ 1.95 µM)	1.13 (≈ 3.28 µM)	
C=C[C@H]1CN2CC[C@H]1C[C@H]2[C@H](O)c1ccnc2ccc(OC)cc12 [QUININE]	0.17 (≈ 0.524 µM)		Non-toxic
CCN(CC)CCCC(C)Nc1ccnc2cc(Cl)ccc12 (stereo not given) [CHLOROQUINE]	0.04 (≈ 0.125 µM)		Non-toxic

Second part, led by results:

IC50 [1] [µg/mL]	Structure (SMILES)	IC50 [2] [µg/mL]	IC50 [3]
1.57 (≈ 4.99 µM)	C=C1C(=O)[C@@]23CCC4[C@@]5(C)CCC[C@@]4(OC5=O)[C@@]2(C)CC[C@@H]1C3 (stereo not given in full)	3.01 (≈ 9.57 µM)	
0.54 (≈ 1.63 µM)	C=C1C(=O)[C@@]23CCC4[C@@]5(C)CCC[C@@]4(OC5=O)[C@@]2(C)CC[C@]1(O)C3 (stereo not given in full)	1.73 (≈ 5.24 µM)	
